# Test results as given in US20110105623A1 (Biogenic Innovations, LLC, priority 2009, published 2011).
# Experiments:
# Format in all cases: cell-based
# [1] = test system: Escherichia coli (ATCC strain 8739); assay: Growth profile in sterile/non-sterile MSM media, streaked on MacConkey agar; settings: 5-16% MSM
# Method: Tubes were incubated at 25° C.
# [2] = test system: White Labs Edinburgh Ale yeast; assay: Fermentation efficiency in production of beer (Scotch Ale); settings: 0.5% MSM
# Text: This positive impact includes such organisms as fungi, yeast, and bacteria. Yeast cultures are involved in the production of beer during the fermentation process to produce ethanol and carbon dioxide. […] Wort is the liquid extracted from the mashing process during the brewing of beer or whisky. Wort contains the sugars that are fermented by the brewing yeast to produce alcohol.
# This Procedure is detailed below.
# After preparing the mash, the brewing process was started. […] Equipment was cleaned thoroughly with PBW. The wort chiller and filtered air stone were sanitized with brewing sanitizer (San Star Brewing Sanitizer). […] At 30 minutes of boil, a second aliquot (0.5 ounces) of Cascade hops was added. At 40 minutes of boil, third aliquot (0.5 ounces) of Cascade hops was added as well as 2 teaspoons of […] Moss. At 50 minutes of boil, a fourth aliquot (0.5 ounces) of Cascade hops was added. Wort was decanted from the brew kettle to the wort chiller and chilled to 74° F. The wort was then divided into two fermentors (each 21 liters in volume). […] Both fermentors were aerated for 25 minutes with sanitized filtered air stone.
# Chlorella sorokiniana = assay: Algal growth by percent transmittance at 750 nm
# Method: Two species of Chlorella were examined for growth—Chlorella sorokiniana a freshwater species and Chlorella minutissima a marine species. […] Growth was measured on day 0, 1, 2, 3, 4, 5, 6, 7, 8, 9 and 10. […] The following media were purchased from UTEX Culture Collection of Algae: Enriched Salt Water Medium and Volvox Dextrose Medium.
# The algae were grown for 48 hours in the appropriate medium. The initial suspension was enumerated for each alga and is referred to as the starting inoculums. Chlorella sorokiniana was at 381 million cells per milliliter and Chlorella minutissima was at 19 million cells per milliliter. One milliliter of the algal solution was placed into 9 mLs of medium and mixed by vortexing. […] The tube of algae and MSM were incubated at room temperature with exposure to sunlight. […] Each dilution of MSM for each organism was set up in and analyzed in triplicate for each time interval measured. The samples were measured by percent transmittance on a UV/VIS spectrophotometer at wavelength 750 nm. The medium stock was tested for percent transmittance background levels at every time interval were measured. The lower percent transmittance indicated a higher growth factor.
substance,measurement,setting,value
Methylsulfonylmethane [MSM],Growth profile of E. coli,"[1]; 24 hours, NS (sterile saline + non-sterile MSM), 8% MSM",Heavy
same,Growth profile of E. coli,"[1]; 24 hours, NS (sterile saline + non-sterile MSM), 12% MSM",Moderate
same,Growth profile of E. coli,"[1]; 24 hours, NSA (saline + MSM, then sterilized), 8% MSM",Heavy
same,Growth profile of E. coli,"[1]; 24 hours, NSA (saline + MSM, then sterilized), 12% MSM",Moderate
same,Growth profile of E. coli,"[1]; 24 hours, TSB (sterile TSB + non-sterile MSM), 8% MSM",Heavy
same,Growth profile of E. coli,"[1]; 24 hours, TSB (sterile TSB + non-sterile MSM), 10% MSM",Moderate
same,Growth profile of E. coli,"[1]; 24 hours, TSB (sterile TSB + non-sterile MSM), 11% MSM",Few
same,Growth profile of E. coli,"[1]; 24 hours, TSBA (TSB + MSM, then sterilized), 8% MSM",Heavy
same,Growth profile of E. coli,"[1]; 24 hours, TSBA (TSB + MSM, then sterilized), 10% MSM",Moderate
same,Growth profile of E. coli,"[1]; 24 hours, TSBA (TSB + MSM, then sterilized), 11% MSM",Few
same,Growth profile of E. coli,"[1]; 48 hours, NS, 8% MSM",Heavy
same,Growth profile of E. coli,"[1]; 48 hours, NS, 12% MSM",Moderate
same,Growth profile of E. coli,"[1]; 48 hours, NSA, 8% MSM",Heavy
same,Growth profile of E. coli,"[1]; 48 hours, NSA, 12% MSM",Moderate
same,Growth profile of E. coli,"[1]; 48 hours, TSB, 8% MSM",Heavy
same,Growth profile of E. coli,"[1]; 48 hours, TSB, 11% MSM",Moderate
same,Growth profile of E. coli,"[1]; 48 hours, TSB, 12% MSM",Few
same,Growth profile of E. coli,"[1]; 48 hours, TSBA, 8% MSM",Heavy
same,Growth profile of E. coli,"[1]; 48 hours, TSBA, 11% MSM",Moderate
same,Growth profile of E. coli,"[1]; 48 hours, TSBA, 12% MSM",Few
same,Growth profile of E. coli,"[1]; 72 hours, NS, 8% MSM",Heavy
same,Growth profile of E. coli,"[1]; 72 hours, NS, 12% MSM",Moderate
same,Growth profile of E. coli,"[1]; 72 hours, NSA, 8% MSM",Heavy
same,Growth profile of E. coli,"[1]; 72 hours, NSA, 12% MSM",Moderate
same,Growth profile of E. coli,"[1]; 72 hours, TSB, 8% MSM",Heavy
same,Growth profile of E. coli,"[1]; 72 hours, TSB, 11% MSM",Moderate
same,Growth profile of E. coli,"[1]; 72 hours, TSB, 12% MSM",Few
same,Growth profile of E. coli,"[1]; 72 hours, TSBA, 8% MSM",Heavy
same,Growth profile of E. coli,"[1]; 72 hours, TSBA, 11% MSM",Moderate
same,Growth profile of E. coli,"[1]; 72 hours, TSBA, 12% MSM",Few
same,fermentor activity sooner than control,[2],58%
same,sooner time of completion,[2],17-25%
same,starter activity sooner than control,[2],80%
same,"time to activity, fermentor",[2],3.5 h
same,time to maximum fermentation,[2],5 days
same,"Growth, percent transmittance at 750 nm","Chlorella sorokiniana; MSM 0.5%, Sample Day 0",47.3%
same,"Growth, percent transmittance at 750 nm","Chlorella sorokiniana; MSM 0.5%, Sample Day 1",41.8%
same,"Growth, percent transmittance at 750 nm","Chlorella sorokiniana; MSM 0.5%, Sample Day 2",29.3%
same,"Growth, percent transmittance at 750 nm","Chlorella sorokiniana; MSM 0.5%, Sample Day 3",29.6%
same,"Growth, percent transmittance at 750 nm","Chlorella sorokiniana; MSM 0.5%, Sample Day 4",19.0%
same,"Growth, percent transmittance at 750 nm","Chlorella sorokiniana; MSM 0.5%, Sample Day 5",12.4%
same,"Growth, percent transmittance at 750 nm","Chlorella sorokiniana; MSM 0.5%, Sample Day 6",12.5%
same,"Growth, percent transmittance at 750 nm","Chlorella sorokiniana; MSM 0.5%, Sample Day 7",11.9%
same,"Growth, percent transmittance at 750 nm","Chlorella sorokiniana; MSM 0.5%, Sample Day 8",12.2%
same,"Growth, percent transmittance at 750 nm","Chlorella sorokiniana; MSM 0.5%, Sample Day 9",7.5%
same,"Growth, percent transmittance at 750 nm","Chlorella sorokiniana; MSM 0.5%, Sample Day 10",6.4%
same,"Growth, percent transmittance at 750 nm","Chlorella sorokiniana; MSM 1%, Sample Day 0",48.7%
same,"Growth, percent transmittance at 750 nm","Chlorella sorokiniana; MSM 1%, Sample Day 1",42.5%
same,"Growth, percent transmittance at 750 nm","Chlorella sorokiniana; MSM 1%, Sample Day 2",37.5%
same,"Growth, percent transmittance at 750 nm","Chlorella sorokiniana; MSM 1%, Sample Day 3",37.5%
same,"Growth, percent transmittance at 750 nm","Chlorella sorokiniana; MSM 1%, Sample Day 4",17.3%
same,"Growth, percent transmittance at 750 nm","Chlorella sorokiniana; MSM 1%, Sample Day 5",13.5%
same,"Growth, percent transmittance at 750 nm","Chlorella sorokiniana; MSM 1%, Sample Day 6",13.0%
same,"Growth, percent transmittance at 750 nm","Chlorella sorokiniana; MSM 1%, Sample Day 7",12.5%
same,"Growth, percent transmittance at 750 nm","Chlorella sorokiniana; MSM 1%, Sample Day 8",12.4%
same,"Growth, percent transmittance at 750 nm","Chlorella sorokiniana; MSM 1%, Sample Day 9",7.8%
same,"Growth, percent transmittance at 750 nm","Chlorella sorokiniana; MSM 1%, Sample Day 10",6.6%
same,"Growth, percent transmittance at 750 nm","Chlorella sorokiniana; MSM 5%, Sample Day 0",35.6%
same,"Growth, percent transmittance at 750 nm","Chlorella sorokiniana; MSM 5%, Sample Day 1",31.2%
same,"Growth, percent transmittance at 750 nm","Chlorella sorokiniana; MSM 5%, Sample Day 2",27.4%
same,"Growth, percent transmittance at 750 nm","Chlorella sorokiniana; MSM 5%, Sample Day 3",21.4%
same,"Growth, percent transmittance at 750 nm","Chlorella sorokiniana; MSM 5%, Sample Day 4",18.2%
same,"Growth, percent transmittance at 750 nm","Chlorella sorokiniana; MSM 5%, Sample Day 5",15.7%
same,"Growth, percent transmittance at 750 nm","Chlorella sorokiniana; MSM 5%, Sample Day 6",15.9%
same,"Growth, percent transmittance at 750 nm","Chlorella sorokiniana; MSM 5%, Sample Day 7",16.3%
same,"Growth, percent transmittance at 750 nm","Chlorella sorokiniana; MSM 5%, Sample Day 8",17.0%
same,"Growth, percent transmittance at 750 nm","Chlorella sorokiniana; MSM 5%, Sample Day 9",13.7%
same,"Growth, percent transmittance at 750 nm","Chlorella sorokiniana; MSM 5%, Sample Day 10",12.8%
same,"Growth, percent transmittance at 750 nm","Chlorella sorokiniana; MSM 10%, Sample Day 0",31.2%
same,"Growth, percent transmittance at 750 nm","Chlorella sorokiniana; MSM 10%, Sample Day 1",31.3%
same,"Growth, percent transmittance at 750 nm","Chlorella sorokiniana; MSM 10%, Sample Day 2",29.7%
same,"Growth, percent transmittance at 750 nm","Chlorella sorokiniana; MSM 10%, Sample Day 3",28.4%
same,"Growth, percent transmittance at 750 nm","Chlorella sorokiniana; MSM 10%, Sample Day 4",29.0%
same,"Growth, percent transmittance at 750 nm","Chlorella sorokiniana; MSM 10%, Sample Day 5",28.7%
same,"Growth, percent transmittance at 750 nm","Chlorella sorokiniana; MSM 10%, Sample Day 6",27.1%
same,"Growth, percent transmittance at 750 nm","Chlorella sorokiniana; MSM 10%, Sample Day 7",27.6%
same,"Growth, percent transmittance at 750 nm","Chlorella sorokiniana; MSM 10%, Sample Day 8",27.1%
same,"Growth, percent transmittance at 750 nm","Chlorella sorokiniana; MSM 10%, Sample Day 9",76.4%
same,"Growth, percent transmittance at 750 nm","Chlorella sorokiniana; MSM 10%, Sample Day 10",93.8%
same,"Growth, percent transmittance at 750 nm","Chlorella sorokiniana; MSM 20%, Sample Day 0",19.3%
same,"Growth, percent transmittance at 750 nm","Chlorella sorokiniana; MSM 20%, Sample Day 1",21.9%
same,"Growth, percent transmittance at 750 nm","Chlorella sorokiniana; MSM 20%, Sample Day 2",24.1%
same,"Growth, percent transmittance at 750 nm","Chlorella sorokiniana; MSM 20%, Sample Day 3",28.1%
same,"Growth, percent transmittance at 750 nm","Chlorella sorokiniana; MSM 20%, Sample Day 4",31.4%
same,"Growth, percent transmittance at 750 nm","Chlorella sorokiniana; MSM 20%, Sample Day 5",33.6%
same,"Growth, percent transmittance at 750 nm","Chlorella sorokiniana; MSM 20%, Sample Day 6",36.8%
same,"Growth, percent transmittance at 750 nm","Chlorella sorokiniana; MSM 20%, Sample Day 7",40.6%
same,"Growth, percent transmittance at 750 nm","Chlorella sorokiniana; MSM 20%, Sample Day 8",40.8%
same,"Growth, percent transmittance at 750 nm","Chlorella sorokiniana; MSM 20%, Sample Day 9",84.8%
same,"Growth, percent transmittance at 750 nm","Chlorella sorokiniana; MSM 20%, Sample Day 10",96.7%
same,"Growth, percent transmittance at 750 nm","Chlorella sorokiniana; MSM […], Sample Day 0",40.6%
same,"Growth, percent transmittance at 750 nm","Chlorella sorokiniana; MSM […], Sample Day 1",43.1%
same,"Growth, percent transmittance at 750 nm","Chlorella sorokiniana; MSM […], Sample Day 2",44.9%
same,"Growth, percent transmittance at 750 nm","Chlorella sorokiniana; MSM […], Sample Day 3",43.8%
same,"Growth, percent transmittance at 750 nm","Chlorella sorokiniana; MSM […], Sample Day 4",26.1%
same,"Growth, percent transmittance at 750 nm","Chlorella sorokiniana; MSM […], Sample Day 5",10.3%
same,"Growth, percent transmittance at 750 nm","Chlorella sorokiniana; MSM […], Sample Day 6",10.9%
same,"Growth, percent transmittance at 750 nm","Chlorella sorokiniana; MSM […], Sample Day 7",11.0%
same,"Growth, percent transmittance at 750 nm","Chlorella sorokiniana; MSM […], Sample Day 8",11.2%
same,"Growth, percent transmittance at 750 nm","Chlorella sorokiniana; MSM […], Sample Day 9",8.4%
same,"Growth, percent transmittance at 750 nm","Chlorella sorokiniana; MSM […], Sample Day 10",6.0%
